# Results taken from US20020065314A1, “COMPOSITIONS AND METHOD FOR STIMULATING HAIR GROWTH” (priority 1995, published 2002).
# Entries after “also recorded” stand apart in the source; their conditions may differ.
# Assays:
# [1] = test system: C57BL/KsJ db/+ mice; assay: Application to full-thickness incisional and excisional wounds; assay type: in vivo, mouse
# Procedure: An incisional, full-thickness wound, about 2 cm long was made through the dorsal skin of five mice (strain C57BL/KsJ db/+). A single dose of about 10 mg of n-butyl cyanoacrylate (in 10 μl of Nexaband^R Liquid) was applied to the bottom of the wound, and the wound closed with two surgical clips. Control animals which received 10 μl of phosphate buffered saline (PBS: 0.144 g/l KH2PO4, 9.0 g/l NaCl, 0.795 g/l Na2HPO4.7H2O; pH 7.2) were processed identically. During the period of 1-90 days post application, the effect of n-butyl cyanoacrylate treatment was examined by macroscopic observation.
# In a group of five C57BL/KsJ db/+ mice, a full-thickness excisional wound was made with a biopunch (6 mm diameter) on the dorsal skin. A single dose of 9 mg of n-butyl cyanoacrylate (in 10 μl of Nexaband^R Liquid) was applied to the bottom of the wound, and the wound was left open. Control animals which received 10 μl of PBS were treated identically.
# [2] = test system: mice and rats
# [3] = test system: C57BL/KsJ db/+ mice; assay: Inhibition of n-butyl cyanoacrylate-stimulated hair growth by neutralizing antibodies; assay type: in vivo, mouse; conditions: day 14, sites 2 and 3, 10 μl per site
# Procedure: Forty mice of strain C57BL/KsJ db/+ eight weeks old were divided into four equal groups (A-D). The dorsal aspect of the mice were shaved, and five different sites on the dorsum were designated (sites 1-5). Each site was 5-6 mm^2. Animals of group A were treated topically at sites 1, 2 & 3 with n-butyl cyanoacrylate only (10 μl per site) formulated as Nexaband^R Liquid. Animals of group B were treated topically at sites 1, 2 & 3 with the same dose of n-butyl cyanoacrylate, but sites 1 and 3 subsequently received subcutaneous injections of either anti-TGF-β1 neutralizing antibody (1 μg per g of body weight) in PBS/0.1% BSA (at site 1), or PBS/0.1% BSA as a matched control (at site 3). Group C animals were treated as for Group B except that anti-EGF neutralizing antibody was injected at site 1 instead of anti-TGF-pi. […] Group D animals were shaved only and received no treatment.
# Hair regeneration was documented by macroscopic observations supported by serial photographs of treatment sites. Histological observations were made on skin biopsies taken at frequent intervals ranging from 6 hours to 21 days post-treatment.
# [4] = test system: C57BL/KsJ db/+ and C57BL/KsJ db/db mice; assay: Dose of n-butyl cyanoacrylate and response of hair growth (macroscopic score); assay type: in vivo, mouse
# Procedure: The effect of n-butyl cyanoacrylate concentration on stimulation of hair growth was investigated as follows. Five mice of each strains C57BL/KsJ db/+ and C57BL/KsJ db/db were shaved on the dorsum, treated with a single topical application of either undiluted Nexaband^R Liquid (containing about 10 mg of n-butyl cyanoacrylate per 10 μl), or Nexaband^R Liquid diluted to 50% or 25% with vegetable oil. Hair growth was macroscopically scored at 49, 61 and 86 days after treatment.
# [5] = test system: C57BL/KsJ db/+ mice and 6 other strains of mice; assay: Single topical application to shaved dorsum of mice: cutaneous changes and hair growth; assay type: in vivo, mouse
# Source text: The dorsal aspect of C57BL/KsJ db/+ female mice was shaved and a single topical dose of n-butyl cyanoacrylate (formulated as Nexaband^R Liquid) was applied. […] At this early stage some of these new aggregates form laminae and appear to constitute neo-angiogenesis. At day 1 post application, the gross appearance of inflammation was still apparent, and there was microscopic evidence for the formation of a lumen from an aggregate of cells in the subcutaneous layer. […] These changes were only observed in the treated area. […] Between eight and 12 days post application, hair follicles and new hair were present at the sites of application; the remainder of the shaved area remained hairless. Epidermal and dermal thickening and new hair follicle development in treated skin were pronounced until days 10-20 post application (FIGS. 3A-3B), at which time large mature hair follicles traversed the entire thickness of the dermis and subcutaneous layer (FIG. 3C). Hair follicle density reached a maximum level at about days 20-30 post application, at which time the epithelium and connective tissue elements began to return to their pre-treatment appearance (FIGS. 4A-4B).
# (§1) At the gross level, the hair growth in the shaved treated area occurs at 8-12 days and reaches full length at about 14-20 days post treatment, however, the remainder of the shaved untreated area remains hairless and the hair follicles small (in telogen (resting) phase)(5A-5B). The response of hair growth to the n-butyl cyanoacrylate stimulus is very similar in 6 other strains of mice (C57BL/KsJ +/+, C57BL/KsJ db/db, Balb/cBYj +/+, Balb/cBYj nu/+, HRS/J hr/+, and RHJ/LeJ hr^rh-j/+) (FIGS. 6A-6C) and Sprague Dawley rats (FIGS. 7A-7B). The hair growth rate in the fastest growth period (at about 10-15 days post treatment) reaches 1 mm per day. This is entirely consistent with the microscopically observed stimulation of hair follicles following treatment.
# [6] = test system: Sprague Dawley rats; assay: Single topical application, hair growth in rats; assay type: in vivo, rat
# Source text: as §1
# [7] = 25%, C57BL/KsJ db/+, 49 days after treatment
# [8] = 25%, C57BL/KsJ db/+, 61 days after treatment
# [9] = 25%, C57BL/KsJ db/+, 86 days after treatment
# [10] = 25%, C57BL/KsJ db/db, 49 days after treatment
# [11] = 25%, C57BL/KsJ db/db, 61 days after treatment
# [12] = 25%, C57BL/KsJ db/db, 86 days after treatment
# [13] = 50%, C57BL/KsJ db/db, 49 days after treatment
# [14] = 50%, C57BL/KsJ db/db, 61 days after treatment
# [15] = 50%, C57BL/KsJ db/db, 86 days after treatment
# [16] = C57BL/KsJ db/+, post application
smiles,measurement,setting,value
C=C(C#N)C(=O)OCCCC [n-butyl cyanoacrylate],microscopic examination of wound site,[1]; full thickness incisional or excisional wound,"induced de novo hair follicle formation in the subcutaneous adipose layer, in the dermis, as well as in the wound site"
same,hair growth at wound (photograph),"[1]; incision wound, day 17 post treatment",profound hair growth along the linear wound margin
same,hair growth at wound,[1]; incisional and excisional wounds,stimulated hair growth along the wound margin
same,histology of wound site,"[1]; incisional wound, day 17 post treatment",development of many new hair follicles and little scar tissue in the wound site
same,reproducibility of hair growth induced,"[2]; 10 mg/10 μl cm^−2, more than 700 normal adult mice and rats, and 80 diabetic (db/db) animals",100%
same,"side effect, toxic effect or tumor-like tissue formation after the treatment",[2]; in vivo,No any side effect or toxic effect or tumor-like tissue formation after the treatment has been observed except for a mild inflammation shortly after application
same,"hair growth in normal intact skin, in skin of animals pre-treated with anticancer drugs, and at edges of wounds","[2]; two species (rat and mouse), seven strains of mouse",stimulate hair growth
same,stimulation of hair growth at sites treated with n-butyl cyanoacrylate alone,[3],clearly evident; also recorded: new hair growth was present
same,"Number of Animals Exhibiting Hair Growth, Score 0",[4]; [7],4
same,"Number of Animals Exhibiting Hair Growth, Score 1+",[4]; [7],1
same,"Number of Animals Exhibiting Hair Growth, Score 0",[4]; [8],2
same,"Number of Animals Exhibiting Hair Growth, Score 1+",[4]; [8],3
same,"Number of Animals Exhibiting Hair Growth, Score 0",[4]; [9],3
same,"Number of Animals Exhibiting Hair Growth, Score 1+",[4]; [9],2
same,"Number of Animals Exhibiting Hair Growth, Score 0",[4]; [10],2
same,"Number of Animals Exhibiting Hair Growth, Score 2+",[4]; [10],2
same,"Number of Animals Exhibiting Hair Growth, Score 3+",[4]; [10],1
same,"Number of Animals Exhibiting Hair Growth, Score 0",[4]; [11],2
same,"Number of Animals Exhibiting Hair Growth, Score 1+",[4]; [11],1
same,"Number of Animals Exhibiting Hair Growth, Score 2+",[4]; [11],1
same,"Number of Animals Exhibiting Hair Growth, Score 3+",[4]; [11],1
same,"Number of Animals Exhibiting Hair Growth, Score 2+",[4]; [12],3
same,"Number of Animals Exhibiting Hair Growth, Score 3+",[4]; [12],2
same,"Number of Animals Exhibiting Hair Growth, Score 2+",[4]; [13],2
same,"Number of Animals Exhibiting Hair Growth, Score 3+",[4]; [13],3
same,"Number of Animals Exhibiting Hair Growth, Score 2+",[4]; [14],1
same,"Number of Animals Exhibiting Hair Growth, Score 3+",[4]; [14],4
same,"Number of Animals Exhibiting Hair Growth, Score 2+",[4]; [15],2
same,"Number of Animals Exhibiting Hair Growth, Score 3+",[4]; [15],3
same,"Number of Animals Exhibiting Hair Growth, Score 3+","[4]; 100% (10 mg/10 μl), C57BL/KsJ db/+, 49 days after treatment",5
same,"Number of Animals Exhibiting Hair Growth, Score 3+","[4]; 100% (10 mg/10 μl), C57BL/KsJ db/+, 61 days after treatment",5
same,"Number of Animals Exhibiting Hair Growth, Score 3+","[4]; 100% (10 mg/10 μl), C57BL/KsJ db/+, 86 days after treatment",5
same,"Number of Animals Exhibiting Hair Growth, Score 3+","[4]; 100% (10 mg/10 μl), C57BL/KsJ db/db, 49 days after treatment",5
same,"Number of Animals Exhibiting Hair Growth, Score 3+","[4]; 100% (10 mg/10 μl), C57BL/KsJ db/db, 61 days after treatment",5
same,"Number of Animals Exhibiting Hair Growth, Score 3+","[4]; 100% (10 mg/10 μl), C57BL/KsJ db/db, 86 days after treatment",5
same,dose dependence of induced hair growth,"[4]; undiluted, 50%, 25%",dose-dependent
same,response of hair growth compared with C57BL/KsJ db/+,[5]; 6 other strains of mice and Sprague Dawley rats,very similar
same,hair growth on dorsum (photograph),"[5]; Balb/cBYj nu/+, 19 days post application",hair growth appears in a circle pattern
same,"hair follicle number, maximum increase treated vs untreated areas",[5]; C57BL/KsJ db/+,about 2 fold
same,histology of treated skin,"[5]; C57BL/KsJ db/+, 16 days following application",large mature hair follicles traversing the entire thickness of the skin
same,hair growth on dorsum (photograph),"[5]; C57BL/KsJ db/+, 17 days post application",triangle pattern of hair growth
same,histology of treated skin vs adjacent untreated area,"[5]; C57BL/KsJ db/+, 19 days after topical treatment",high concentration of large mature hair follicles
same,"scanning electron micrograph, treated vs adjacent untreated area","[5]; C57BL/KsJ db/+, 23 days after treatment",higher density of hairs and deeper hair roots in the treated area
same,histology of treated skin,"[5]; C57BL/KsJ db/+, day 3 post application","multilayered epidermis, thickened dermis, and epidermal peg elongation; also recorded: evidence of trichogenesis was clearly seen at the treatment site"
same,histology of treated skin,"[5]; C57BL/KsJ db/+, day 10 post application",increase in the number of mature hair follicles; also recorded: new epithelial pegs had developed into mature hair follicles
same,"thickness of the dermis layer, increase treated vs untreated areas","[5]; C57BL/KsJ db/+, days 16-20 post treatment",1.5 fold
same,"thickness of the dermis layer, treated vs untreated areas","[5]; C57BL/KsJ db/+, first day after treatment",about 1.3 fold
same,time of maximum hair follicle density,[5]; [16],20 to 30 days
same,time until which epidermal and dermal thickening and new hair follicle development were pronounced,[5]; [16],10 to 20 days
same,time at which dermis returns to normal thickness,"[5]; C57BL/KsJ db/+, post treatment",about 70 days
same,time at which epidermis returns to normal thickness,"[5]; C57BL/KsJ db/+, post treatment",about 40 days
same,time at which hair reaches full length,"[5]; C57BL/KsJ db/+, post treatment",14 to 20 days
same,"thickness of the epidermis layer, maximum increase in treated areas vs maximum level in untreated areas","[5]; C57BL/KsJ db/+, topical",about 2 fold
same,early change of treated skin,"[5]; C57BL/KsJ db/+, within six hours of application",slight thickening of the treated skin
same,time at which new hair follicle formation occurs in treated area,[5]; after treatment,2 to 3 days
same,hair growth rate in the fastest growth period,[5]; at about 10-15 days post treatment,1 mm per day
same,hair growth on dorsum (photograph),"[5]; diabetic C57BL/KsJ db/db, 27 days post application",hair growth appears in a rectangle pattern
same,"hair follicle number, maximum in treated vs untreated areas",[5]; diabetic strain C57BL/KsJ db/db,about 4 fold
same,time hair regrowth in treated areas remains unchanged while shaved untreated areas are hairless,"[5]; genetically healing-impaired diabetic mice, post treatment",more than 216 days
same,time over which no shedding of induced hair has been found,"[5]; mice, post treatment",> 335 days
same,length of new hairs over those in adjacent untreated area,"[5]; mouse, in vivo",1-2 mm
same,localization of the hair growth response,"[5]; mouse, in vivo",completely localized to the area where the stimulator is applied
same,time at which hair growth occurs (is seen) in shaved treated area,"[5]; post treatment, single topical dose",8 to 12 days
same,hair regrowth after repeated shaving,"[5]; single application, area subsequently shaved three times at 20-day intervals",the hair keeps regrowing in the treated areas
same,"histology, hair follicle density treated vs untreated area",[6]; Sprague Dawley rat,much higher density of hair follicles in treated area
same,hair growth on dorsum (photograph),"[6]; Sprague Dawley rat, 23 days post application",hair growth appears as a rectangle pattern
same,time over which no shedding of induced hair has been found,"[6]; rats, post treatment",over 210 days
